{"source": "patent US8299129B2", "about": "“Peptide lipid-containing carrier and method for introducing compound into cells using same” (Fukuoka Prefectural Government, priority 2006, dated 2012)", "key": {"Balb/c mouse [1]": {"system": "Balb/c mouse", "assay": "Introduction of Cy3-labeled siRNA into mouse tissues using peptide lipid, fluorescence microscopy of removed tissues", "format": "in vivo", "conditions": "tail vein injection, Cy3-labeled siRNA complex, 4 hours", "method": "(§1) Cy3-labeled siRNA ([…], purchased from Dharmacon) was mixed with 200 μl of 150 mM NaCl solution, 1.3 mM peptide lipid (RE-C12) (16 μl) was mixed with the above-mentioned siRNA solution and the mixture was incubated for 5 min to give peptide lipid—RNA complex. This was injected to Balb/c mouse (15-week-old) from the tail vein. […] Four hours later, the mouse was autopsied and each tissue (heart, lung, liver, kidney, spleen) was removed, which was cut into small pieces and observed with a fluorescence microscope. When peptide lipid was used as a carrier, siRNA could be introduced into each tissue in the body."}, "Balb/c mouse [2]": {"system": "Balb/c mouse", "assay": "Acute toxicity in mouse after tail vein injection of peptide lipid-RNA complex", "format": "in vivo", "conditions": "at the concentration tested", "method": "as §1"}}}
{"substance": "Arg-Glu-C12 [RE-C12]", "values": [{"measurement": "Introduction efficiency into the liver and spleen", "setting": "Balb/c mouse [1]", "value": "particularly superior"}, {"measurement": "evaluation (introduction of siRNA), heart", "setting": "Balb/c mouse [1]; heart", "value": 5, "unit": "%"}, {"measurement": "evaluation (introduction of siRNA), kidney", "setting": "Balb/c mouse [1]; kidney", "value": 5, "unit": "%"}, {"measurement": "evaluation (introduction of siRNA), liver", "setting": "Balb/c mouse [1]; liver", "value": 25, "unit": "%"}, {"measurement": "evaluation (introduction of siRNA), lung", "setting": "Balb/c mouse [1]; lung", "value": 10, "unit": "%"}, {"measurement": "evaluation (introduction of siRNA), spleen", "setting": "Balb/c mouse [1]; spleen", "value": 30, "unit": "%"}, {"measurement": "acute toxicity", "setting": "Balb/c mouse [2]", "value": "acute toxicity was not observed"}]}
